Earlier results as cited in PMC12018205, “Mutant protein chemical rescue: From mechanisms to therapeutics” (The Journal of Biological Chemistry, 2025).

Tests used:
Q227L Gα (Gsα subunit) = conditions: substrate-assisted catalysis
[1] = test system: S-mandelate dehydrogenase R277G mutant; design: method as in PMID 10955993
[2] = test system: R359C GS (glutamine synthetase); design: method as in PMID 7912599; conditions: for rescue of kcat / reactivation of R359C mutant: covalent modification of Cys
[3] = test system: aspartate aminotransferase K258C mutant; design: method as in PMID 1907854; conditions: aminoethylation of K258C
galactocerebrosidase = test system: galactocerebrosidase; design: method as in PMID 24913062; conditions: Krabbe disease
mutant p53 tumors = test system: mutant p53 tumors; design: method as in PMID 10617466; conditions: mouse xenograft studies
[4] = test system: mutant α-galactosidase A (GalA); design: method as in PMID 9883849; conditions: prevents aggregation in the endoplasmic reticulum
[5] = test system: clostridial GDH D156S mutant
[6] = test system: rat pancreatic carboxypeptidase A R127A mutant; design: method as in PMID 1304353; conditions: up
[7] = test system: rat pancreatic carboxypeptidase A R127M mutant; design: method as in PMID 1304353
[8] = test system: trehalose phosphorylase R507A mutant; design: method as in PMID 18205830; conditions: up
[9] = test system: ornithine transcarbamylase R57G variant
[10] = test system: AS B (asparagine synthetase B) Arg325 to Ala mutant; design: method as in PMID 9139684; conditions: 50 mM rescue agent
mutant forms of CFTR = test system: mutant forms of CFTR; design: method as in PMID 19846789; conditions: some mutant forms; epithelial cell membranes
[11] = test system: N370S-mutant β-glucosidase; design: method as in PMID 12434014
HDAC8 = test system: HDAC8; design: method as in PMID 26463496; conditions: multiple forms
[12] = test system: pyruvate kinase C9S/C268S/K221C triple mutant; conditions: aminoethylation of K221C
[13] = test system: Lys80-mutant leucine dehydrogenase; conditions: One M; from 1.5% unrescued
[14] = test system: E361G-mutant β-galactosidase; conditions: E361G mutant rescued
[15] = test system: Y51A-mutant xylose reductase; conditions: NAD+-dependent oxidation of xylitol
[16] = test system: rationally designed proteins and temperature-sensitive library mutants in yeast
I278T CBS = test system: I278T CBS; design: method as in PMID 17540596
tripeptidyl peptidase I = test system: tripeptidyl peptidase I; design: method as in PMID 20340139; conditions: one form
[17] = test system: Paenibacillus sp. dextranase glutamate mutants; conditions: high concentration of 2.4 M
[18] = test system: Csk, Src, and Abl kinases Arg to Ala mutants
[19] = test system: β-class carbonic anhydrase Asp34 to Ala mutant; design: method as in PMID 12107142; conditions: without affecting kcat/KM
subtilisin H64A mutant = test system: subtilisin H64A mutant; design: method as in PMID 2059622; conditions: much lesser degree than His-containing substrate
[20] = test system: SpyCas9 H840A and H840G mutants; design: method as in PMID 33428390; conditions: 100 mM; both H840 mutants
H122G NDPK = test system: H122G NDPK; design: method as in PMID 10200157
[21] = test system: R388A v-Src in SYF MEF cells; conditions: live cells, FRET-based cell sensor
[22] = test system: cytomegalovirus protease assemblin His to Gly mutant; design: method as in PMID 16036911; conditions: in vitro and in mammalian cells
[23] = test system: β-glycosidase (β-gly) W33G mutant; design: method as in PMID 22655749
[24] = test system: Y14G-mutant ketosteroid isomerase; conditions: 2 mM
Y319A TbtD = conditions: 10 mM
[25] = test system: mutant PAH (phenylalanine hydroxylase); conditions: PAH stabilization and enhancement of enzyme kinetics

Molecule: 3,4-diamino-benzophenone phosphonoamidate-GTP [DABP-GTP]
- GTPase activity rescue with GTP analog as substrate (Q227L Gα (Gsα subunit)): nearly WT activity

Molecule: CN(C)C(=N)N [1,1-dimethylguanidine]
- effectiveness as rescue agent [1]: not effective

Molecule: Cn1ccnc1 [1-methylimidazole]
- effectiveness as rescue agent [1]: not effective

Molecule: N=C(N)CCl [2-CA, 2-chloroacetamidine]
- kcat restored, % of the value of the WT enzyme ([2]; R359C GS after covalent modification of Cys): 70%

Molecule: NCCBr [2-bromoethylamine]
- enzymatic activity restored, % of WT aspartate aminotransferase [3]: 7%

Molecule: NCCCBr [3-bromopropylamine]
- rescue of kcat / reactivation of R359C mutant [2]: could not reactivate

Molecule: O=c1c(-c2ccc(O)c(O)c2)coc2cc(O)ccc12 [3′,4′,7-trihydroxyisoflavone]
- rescue of galactocerebrosidase (galactocerebrosidase): rescued

Molecule: COc1ccc(/C=C/c2nc(NCCCN(C)C)c3ccccc3n2)cc1 [CP-31398]
- effect on tumors (mutant p53 tumors): shrunk tumors

Molecule: OC[C@H]1NC[C@H](O)[C@@H](O)[C@H]1O [DGJ, deoxygalactonojirimycin]
- effect of binding on mutant GalA [4]: stabilize mutant GalA

Molecule: N=C(N)CSSCC(=N)N [DTBA, 2,2′-dithiobis(acetamidine)]
- rescue of kcat / reactivation of R359C mutant [2]: hardly affected

Molecule: F [Fluoride, fluoride]
- maximum extent of rescue, forward reaction, increase over baseline [5]: 1000 fold
- maximum extent of rescue, reverse reaction, increase over baseline [5]: 4 fold
- EC50 ([5]; read-out: Kr, reverse reaction, reductive amination): 40 mM

Molecule: N=C(N)N [Guanidine]
- increase in kcat of the R127A mutant [6]: up to 100 fold
- rescue of the R127M mutant [7]: rescued
- enhancement of enzymatic activity [8]: up to 50 fold

Molecule: Cl.N=C(N)N [Guanidinium hydrochloride]
- rescued kcat, within % of the WT enzyme ([9]; R57G variant): ≤ 10%
- stimulation of kcat ([9]; R57G variant): 2000 fold
- EC50 ([9]; R57G variant, read-out: half-maximal rescue concentration (Kr)): 22 mM
- specific activity restored, % of the WT enzyme [10]: ~15%

Molecule: CC(C)(C)c1cc(C(C)(C)C)c(NC(=O)c2c[nH]c3ccccc3c2=O)cc1O [Ivacaftor]
- effect on mutant CFTR (mutant forms of CFTR): enhances their presence and transport function

Molecule: CCCCCCCCCN1C[C@H](O)[C@@H](O)[C@H](O)[C@H]1CO [N-(n-nonyl)deoxynojirimycin]
- effect on mutant β-glucosidase stability and trafficking to the lysosome [11]: shows promise in promoting the stability

Molecule: O=C(NC(=S)Nc1ccccc1)c1ccccc1 [N-(phenylcarbamothioyl)-benzamide]
- rescue of HDAC8 mutants (HDAC8): partially or fully rescued

Molecule: O=C(NCCI)C(F)(F)F [N-[2-iodoethyl]trifluoroacetamide]
- activity rescued, % of the WT pyruvate kinase activity [12]: 4.5%

Molecule: CC(=O)O [acetate]
- enhancement of D189S trypsin activity (D189S trypsin): could enhance the activity
- rescue for substrates bearing Arg at P1 versus Lys (D189S trypsin; D189S trypsin): 10 fold

Molecule: N [ammonia]
- deamination activity restored, % of WT leucine dehydrogenase [13]: 20%

Molecule: N=C(N)NCCC[C@H](N)C(=O)O [arginine]
- restoration of R57G variant activity [9]: not

Molecule: [N-]=[N+]=[N-] [azide]
- enhancement in transglycosylation activity over the WT enzyme [14]: 177 fold

Molecule: Br [bromide ion]
- rescue of Y51A-mutant xylose reductase [15]: partially rescued

Molecule: C[S+](C)[O-] [dimethyl sulfoxide]
- extent of rescue in vivo [16]: weak
- rescue of I278T CBS by chemical chaperones (I278T CBS): partially rescued
- rescue of tripeptidyl peptidase I (tripeptidyl peptidase I): partially rescued

Molecule: CCNC(=N)N [ethylguanidine]
- increase in kcat of the R127A mutant [6]: up to 100 fold

Molecule: O=CO [formate]
- rescue of glutamate mutants [17]: effective
- enhancement in transglycosylation activity over the WT enzyme [14]: 177 fold

Molecule: N=C(N)N [guanidinium]
- extent of rescue in vivo [16]: weak

Molecule: c1c[nH]cn1 [imidazole]
- rescue of activity of Arg to Ala mutants [18]: > 100 fold
- EC50 ([18]; read-out: EC50 of tyrosine kinase rescue): ~5 mM
- pKa: approximately 7
- rescue of kcat defect [19]: rescued this defect in kcat
- restoration of catalytic activity (subtilisin H64A mutant): partially restored
- rescue of in vitro nuclease activity [20]: substantially rescued
- rescue of kcat/KM,ATP (H122G NDPK; ATP): 40 fold
- rescued kcat/KM,ATP, fold below that of the WT enzyme (H122G NDPK; ATP): 50 fold
- kcat/KM,ATPγS, fold higher than the unrescued condition (H122G NDPK; ATPγS): 100 fold
- rescued kcat/KM,ATPγS, fold below WT (H122G NDPK; ATPγS): 2 fold
- time to observed tyrosine phosphorylation after treatment [21]: ≤ 1 min
- complementation of lost proteolytic activity [22]: complemented efficiently

Molecule: c1ccc2[nH]ccc2c1 [indole]
- rescue of β-gly [23]: fully rescued

Molecule: CN=C(N)N [methylguanidine]
- increase in kcat of the R127A mutant [6]: up to 100 fold
- rescued KM, within fold of the WT value [1]: ≤ 30 fold
- rescued kcat, within fold of the WT value [1]: ≤ 1.5 fold
- EC50 ([1]; read-out: half-maximal rescue (Kr)): ~10 mM

Molecule: Oc1ccccc1 [phenol]
- rescue of activity over baseline [24]: about 10 fold
- rescued enzyme activity, % of WT activity [24]: below 1%
- effect on pyridine product formation (Y319A TbtD): substantial increase in pyridine formation

Molecule: c1ccncc1 [pyridine]
- restoration of R57G variant activity [9]: not

Molecule: OC[C@@H](O)[C@@H](O)[C@H](O)[C@@H](O)CO [sorbitol]
- rescue of I278T CBS by chemical chaperones (I278T CBS): partially rescued

Molecule: C[C@H](O)[C@H](O)[C@H]1CNc2nc(N)[nH]c(=O)c2N1 [tetrahydrobiopterin]
- rescue of mutant PAH by excess cofactor [25]: rescue mutant forms of PAH

Molecule: C[N+](C)(C)[O-] [trimethylamine-N-oxide]
- extent of rescue in vivo [16]: weak

Molecule: CN1[C@@H](CC(=O)c2ccccc2)CCC[C@H]1C[C@H](O)c1ccccc1 [α-lobeline]
- rescue of galactocerebrosidase (galactocerebrosidase): rescued
